Assays:
H460 lung cancer cells = assay: Cell growth inhibition assay (SRB), H460; assay type: cell-based; settings: Homo sapiens, NCI-H460, means of three experiments, read-out: Cell Viability IC50 H460
Protocol: (§1) At the same time, we investigated the effect of the compounds on the growth inhibition of A549 and H460 lung cancer cells bearing KRAS and LKB1 mutations. […] Compound 50 containing a piperidine linker was selected for further analysis.
(§2) Human lung carcinoma A549 cells were cultured in Dulbecco’s modified Eagle’s medium and H460 cells were cultured in RPMI 1640 medium containing 10% fetal bovine serum and 1% penicillin/streptomycin at 37 °C with a 5% Co2 hypoxia experimental condition. The cells were grown in the hypoxia chamber (1% O2, 94% N2, and 5% Co2 in a multigas incubator)
(§3) Cell growth inhibition was assessed using sulforhodamine B (SRB) as described in [34]. The cells were fixed with 10% formalin (Sigma-Aldrich) and stained with 0.4% SRB. Protein-bound dye was dissolved in 10 mM of Tris, and its optical density was measured at 540 nm.

A549 lung cancer cells = assay: Cell growth inhibition assay (SRB), A549; assay type: cell-based; settings: Homo sapiens, means of three experiments, read-out: Cell Viability IC50 A549
Protocol: as §1, §2, §3

human recombinant MDH1 = target: T1, human recombinant MDH1 (Homo sapiens, UniProt P40925); assay: MDH1 enzyme activity assay (oxaloacetate-dependent NADH oxidation); assay type: biochemical; settings: means of three experiments
T1 construct: purchased BioVision
T1 sequence (P40925 1-334): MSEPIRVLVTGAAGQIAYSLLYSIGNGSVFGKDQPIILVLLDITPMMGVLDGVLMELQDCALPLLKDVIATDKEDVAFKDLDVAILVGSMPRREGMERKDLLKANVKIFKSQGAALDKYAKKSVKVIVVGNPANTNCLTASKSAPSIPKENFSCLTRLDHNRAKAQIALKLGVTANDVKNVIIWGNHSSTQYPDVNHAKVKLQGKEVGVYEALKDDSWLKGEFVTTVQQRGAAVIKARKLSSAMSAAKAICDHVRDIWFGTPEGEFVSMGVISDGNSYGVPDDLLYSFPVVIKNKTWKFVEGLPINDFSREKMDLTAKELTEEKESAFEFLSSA
Description: (§4) To develop the dual inhibitors of MDH1 and MDH2, we screened the newly synthesized LW1497 derivatives using MDH and MDH2 enzyme assays. LW1497 was used as the positive control for the MDH1/2 dual inhibitor. We evaluated the ability of the synthesized compounds to inhibit human recombinant MDH1 and MDH2 enzymatic activity using an oxaloacetate-dependent NADH oxidation assay (Table 1, Table 2, Table 3, Table 4, Table 5 and Table 6). Our SAR optimization strategy focused on four different parts of LW1497: (A) the introduction of various groups at different positions on the amide phenyl ring; (B) the replacement of the 3-(4-(2,4,4-trimethylpentan-2-yl) alkyl chain; (C) the alteration of the amide portion; and (D) the modification of the oxypropanamide linker portion (Figure 1).
(§5) The activities of MDH1 and MDH2 were confirmed using an oxaloacetate-dependent NADH oxidation assay. Experiments were conducted using 100 mM of potassium phosphate buffer (pH 7.4) and human recombinant MDH1 (BioVision) and MDH2 (BioVision), and the results were obtained by measuring the absorbance at 340 nm. Enzyme activity was measured using a plate reader at a wavelength of 340 nm.

human recombinant MDH2 = target: T2, human recombinant MDH2 (Homo sapiens, UniProt P40926); assay: MDH2 enzyme activity assay (oxaloacetate-dependent NADH oxidation); assay type: biochemical; settings: means of three experiments
T2 construct: purchased BioVision
T2 sequence (P40926 25-338): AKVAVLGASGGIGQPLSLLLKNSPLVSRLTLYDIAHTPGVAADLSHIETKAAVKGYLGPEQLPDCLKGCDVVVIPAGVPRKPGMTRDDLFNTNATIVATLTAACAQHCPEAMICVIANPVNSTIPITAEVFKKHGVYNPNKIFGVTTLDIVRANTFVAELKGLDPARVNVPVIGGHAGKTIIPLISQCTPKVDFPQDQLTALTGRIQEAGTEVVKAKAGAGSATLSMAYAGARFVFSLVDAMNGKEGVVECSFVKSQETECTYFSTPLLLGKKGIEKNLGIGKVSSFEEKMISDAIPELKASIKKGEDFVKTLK
Description: as §4, §5

IC50 (H460 lung cancer cells) [µM]	IC50 (A549 lung cancer cells) [µM]	melting point [°C]	IC50 (human recombinant MDH1) [µM]	IC50 (human recombinant MDH2) [µM]	Compound
> 10	> 10	101 to 103	> 5	> 5	O=C(CCOc1ccc(-c2ccc(F)cc2)cc1)Nc1cccc(OC(F)(F)F)c1 [Compound 35b, 3-((4′-Fluoro-[1,1′-biphenyl]-4-yl)oxy)-N-(3-(trifluoromethoxy)phenyl)propanamide]
> 20	> 20	82 to 85	> 5	> 5	O=C(CCOc1ccc2ccccc2c1)Nc1cccc(OC(F)(F)F)c1 [Compound 39a, 3-(Naphthalen-2-yloxy)-N-(3-(trifluoromethoxy)phenyl)propanamide]
14.86 ± 0.07	14.2 ± 0.2	113 to 115	1.61 ± 0.25	> 5	O=C(CCOc1ccc2ccc(Br)cc2c1)Nc1cccc(OC(F)(F)F)c1 [Compound 39b]
14.8 ± 0.18	17.7 ± 0.18	128 to 130	1.61 ± 0.21	> 5	O=C(CCOc1ccc2cc(Br)ccc2c1)Nc1cccc(OC(F)(F)F)c1 [Compound 39c, 3-((6-Bromonaphthalen-2-yl)oxy)-N-(3-(trifluoromethoxy)phenyl)propanamide]
	> 20	102 to 104	2.25 ± 0.77	18.3 ± 1.8	O=C(CCOc1ccc2cc(F)ccc2c1)Nc1cccc(OC(F)(F)F)c1 [Compound 39d, 3-((6-Fluoronaphthalen-2-yl)oxy)-N-(3-(trifluoromethoxy)phenyl)propanamide]
12.4 ± 0.21	13.2 ± 1.3	65 to 67	3.15 ± 0.11	2.22 ± 0.28	CC(C)(C)CC(C)(C)c1ccc(OCCNC(=O)c2cccc(OC(F)(F)F)c2)cc1 [Compound 44a, 3-(Trifluoromethoxy)-N-(2-(4-(2,4,4-trimethylpentan-2-yl)phenoxy)ethyl)benzamide]
7.61 ± 0.24	7.32 ± 0.02			> 5	CC(C)(C)CC(C)(C)c1ccc(OCCNS(=O)(=O)c2cccc(OC(F)(F)F)c2)cc1 [Compound 44b, 3-(Trifluoromethoxy)-N-(2-(4-(2,4,4-trimethylpentan-2-yl)phenoxy)ethyl)benzenesulfonamide]
18.4 ± 1.55	> 20	102 to 104	5 ± 2.49	> 5	CC(C)(C)CC(C)(C)c1ccc(N2CCN(C(=O)c3cccc(OC(F)(F)F)c3)CC2)cc1 [Compound 51, (3-(Trifluoromethoxy)phenyl)(4-(4-(2,4,4-trimethylpentan-2-yl)phenyl)piperazin-1-yl)methanone]
5.3 ± 0.01	6.06 ± 0.01		1.79 ± 0.04	3.18 ± 0.18	CC(C)(C)CC(C)(C)c1ccc(NCCC(=O)Nc2cccc(OC(F)(F)F)c2)cc1 [Compound 56, N-(3-(Trifluoromethoxy)phenyl)-3-((4-(2,4,4-trimethylpentan-2-yl)phenyl)amino)propanamide]
6.06 ± 0.06	6.47 ± 0.06		1.61 ± 0.02	1.09 ± 0.06	CC(C)N(CCC(=O)Nc1cccc(OC(F)(F)F)c1)c1ccc(C(C)(C)CC(C)(C)C)cc1 [Compound 57b, 3-(Isopropyl(4-(2,4,4-trimethylpentan-2-yl)phenyl)amino)-N-(3-(trifluoromethoxy)phenyl)propanamide]
7.11 ± 0.03	7.24 ± 0.11		2.16 ± 0.01	1.18 ± 0.01	CC(C)(C)CC(C)(C)c1ccc(N(CCC(=O)Nc2cccc(OC(F)(F)F)c2)C2CCC2)cc1 [Compound 57c, 3-(Cyclobutyl(4-(2,4,4-trimethylpentan-2-yl)phenyl)amino)-N-(3-(trifluoromethoxy)phenyl)propanamide]
> 20	> 20	164 to 166	1.41 ± 0.47	> 5	CC(=O)N(CCC(=O)Nc1cccc(OC(F)(F)F)c1)c1ccc(C(C)(C)CC(C)(C)C)cc1 [Compound 57d, N-(3-(Trifluoromethoxy)phenyl)-3-(N-(4-(2,4,4-trimethylpentan-2-yl)phenyl)acetamido)propanamide]

Continued, compound first:

Compound	IC50 (H460 lung cancer cells) [µM]	IC50 (A549 lung cancer cells) [µM]	melting point [°C]	IC50 (human recombinant MDH1) [µM]	IC50 (human recombinant MDH2) [µM]
COc1cccc(NC(=O)CCOc2ccc(C(C)(C)CC(C)(C)C)cc2)c1 [Compound 5a, N-(3-Methoxyphenyl)-3-(4-(2,4,4-trimethylpentan-2-yl)phenoxy)propanamide]	8.83 ± 0.34	11.1 ± 0.77	97 to 99	6.18 ± 0.74	1.5 ± 0.01
CC(C)(C)CC(C)(C)c1ccc(OCCC(=O)Nc2cccc(C#N)c2)cc1 [Compound 5b, N-(3-Cyanophenyl)-3-(4-(2,4,4-trimethylpentan-2-yl)phenoxy)propanamide]	5.84 ± 0.74	5.25 ± 0.21	112 to 114	6.96 ± 0.12	2 ± 0.05
CC(C)(C)CC(C)(C)c1ccc(OCCC(=O)Nc2cccc(C(F)(F)F)c2)cc1 [Compound 5c, N-(3-(Trifluoromethyl)phenyl)-3-(4-(2,4,4-trimethylpentan-2-yl)phenoxy)propanamide]	5.68 ± 0.23	6.47 ± 0.06	88 to 90	8.35 ± 2.86	1.04
CC(C)(C)CC(C)(C)c1ccc(OCCC(=O)Nc2cccc(OC(F)(F)F)c2)cc1 [Compound 5d, N-(3-(Trifluoromethoxy)phenyl)-3-(4-(2,4,4-trimethylpentan-2-yl)phenoxy)propanamide]	6.81 ± 0.04	6.42 ± 0.06		0.94 ± 0.05	1.24 ± 0.13
CC(C)(C)CC(C)(C)c1ccc(OCCC(=O)Nc2ccccc2OC(F)(F)F)cc1 [Compound 5e, N-(2-(Trifluoromethoxy)phenyl)-3-(4-(2,4,4-trimethylpentan-2-yl)phenoxy)propanamide]	> 10	> 10		3.14 ± 0.14	3.09 ± 0.2
CC(C)(C)CC(C)(C)c1ccc(OCCC(=O)Nc2ccc(OC(F)(F)F)cc2)cc1 [Compound 5f, N-(4-(Trifluoromethoxy)phenyl)-3-(4-(2,4,4-trimethylpentan-2-yl)phenoxy)propanamide]	3.77 ± 0.02	5.97 ± 0.71		3.45 ± 0.07	2.12 ± 0.21
CC(C)(C)CCc1ccc(OCCC(=O)Nc2cccc(OC(F)(F)F)c2)cc1 [Compound 14]	12.8 ± 1.36	14.44 ± 0.1		3.05 ± 0.29	1.53 ± 0.08
CC(C)(C)CNc1ccc(OCCC(=O)Nc2cccc(OC(F)(F)F)c2)cc1 [Compound 21, 3-(4-(Neopentylamino)phenoxy)-N-(3-(trifluoromethoxy)phenyl)propanamide]	> 10	> 10		> 5	> 5
CN(CC(C)(C)C)c1ccc(OCCC(=O)Nc2cccc(OC(F)(F)F)c2)cc1 [Compound 22, 3-(4-(Methyl(neopentyl)amino)phenoxy)-N-(3-(trifluoromethoxy)phenyl)propanamide]	> 10	> 10		> 5	3.13 ± 0.29
CC(C)(O)CC(C)(C)c1ccc(OCCC(=O)Nc2cccc(OC(F)(F)F)c2)cc1 [Compound 30, 3-(4-(4-Hydroxy-2,4-dimethylpentan-2-yl)phenoxy)-N-(3-(trifluoromethoxy)phenyl)propanamide]		8.28 ± 0.76		> 5	> 5
O=C(CCOc1ccc(-c2ccccc2)cc1)Nc1cccc(OC(F)(F)F)c1 [Compound 35a, 3-([1,1′-Biphenyl]-4-yloxy)-N-(3-(trifluoromethoxy)phenyl)propanamide]	> 10	> 10	132 to 134	0.78 ± 0.08	1.38 ± 0.59
